Measured values reported in PubChem BioAssay (NCI).
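Step 1: Grow cells in 96-well plates. Step 2: Expose to compound for 48 hours at 5 concentrations. Step 3: Interpolate endpoints linearly; if unreached, use highest concentration. GI50 = concentration required for 50% inhibition of growth. TGI: concentration producing complete growth inhibition.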

How the values were obtained:
Assay in all cases: NCI anticancer screen, dose series, 48 h
[1] = system: ACHN renal
[2] = system: OVCAR-8 ovarian
[3] = system: UACC-62 melanoma
[4] = system: IGROV1 ovarian
[5] = system: HS 578T breast
[6] = system: 786-0 renal
[7] = system: BT-549 breast
[8] = system: SF-268 CNS
[9] = system: KM12 colon
[10] = system: SNB-19 CNS
[11] = system: MOLT-4 leukemia
[12] = system: CAKI-1 renal
[13] = system: SF-295 CNS
[14] = system: HOP-92 NSCLC
[15] = system: MCF7 breast
[16] = system: COLO 205 colon
[17] = system: HL-60(TB) leukemia
[18] = system: OVCAR-5 ovarian
[19] = system: T-47D breast
[20] = system: RXF 393 renal
[21] = system: NCI-H460 lung
[22] = system: EKVX NSCLC
[23] = system: CCRF-CEM leukemia
[24] = system: NCI-H23 lung
[25] = system: LOX IMVI melanoma
[26] = system: OVCAR-3 ovarian
[27] = system: SN12C renal
[28] = system: RPMI-8226 leukemia
[29] = system: A549 NSCLC
[30] = system: MALME-3M melanoma
[31] = system: K-562 leukemia
[32] = system: U251 CNS
[33] = system: PC-3 prostate
[34] = system: MDA-MB-435
[35] = system: HT29 colon
[36] = system: NCI/ADR-RES ovarian
[37] = system: HOP-62 NSCLC
[38] = system: UACC-257 melanoma
[39] = system: HCC-2998 colon
[40] = system: M14 melanoma
[41] = system: MDA-MB-231 breast
[42] = system: SF-539 CNS
[43] = system: SW-620 colon
[44] = system: SK-MEL-5 melanoma
[45] = system: UO-31 renal
[46] = system: OVCAR-4 ovarian
[47] = system: SK-OV-3 ovarian
[48] = system: NCI-H522 lung
[49] = system: HCT-116 colon
[50] = system: DU-145 prostate
[51] = system: SNB-75 CNS
[52] = system: SK-MEL-28 melanoma
[53] = system: A498 renal
[54] = system: TK-10 renal
[55] = system: NCI-H226 lung
[56] = system: SR leukemia
[57] = system: HCT-15 colon
[58] = system: SK-MEL-2 melanoma

## CCOc1ccc(Cc2nccc3cc(OCC)c(OCC)cc23)cc1OCC
[1]
  GI50: 7.54 µM
  TGI: 45.1 µM
[2]
  GI50: 5.33 µM
  TGI: 31.1 µM
[3]
  GI50: 2.72 µM
  TGI: 16.5 µM
[4]
  GI50: 2.39 µM
  TGI: 12.7 µM
[5]
  GI50: 13.2 µM
  TGI: 57.7 µM
[6]
  GI50: 9.57 µM
  TGI: 40.4 µM
[7]
  GI50: 5.16 µM
  TGI: 19.1 µM
[8]
  GI50: 11.3 µM
  TGI: 36.7 µM
[9]
  GI50: 4.85 µM
  TGI: 24.5 µM
[10]
  GI50: 10.7 µM
  TGI: 31.8 µM
[11]
  GI50: 5.83 µM
  TGI: 34.2 µM
[12]
  GI50: 4.53 µM
  TGI: 41 µM
[13]
  GI50: 0.688 µM
  TGI: 15.8 µM
[14]
  GI50: 0.29 µM
  TGI: 8.94 µM
[15]
  GI50: 9.94 µM
  TGI: 23.8 µM
[16]
  GI50: 4.28 µM
  TGI: 19 µM
[17]
  GI50: 3.17 µM
  TGI: 18.2 µM
[18]
  GI50: 4.58 µM
  TGI: 22 µM
[19]
  GI50: 1.47 µM
  TGI: 15 µM
[20]
  GI50: 10.4 µM
  TGI: 23.1 µM
[21]
  GI50: 3.2 µM
  TGI: 21.8 µM
[22]
  GI50: 3.64 µM
  TGI: 27.1 µM
[23]
  GI50: 8.45 µM
  TGI: 65.1 µM
[24]
  GI50: 1.93 µM
  TGI: 21.6 µM
[25]
  GI50: 2.9 µM
  TGI: 17 µM
[26]
  GI50: 10.5 µM
  TGI: 23.6 µM
[27]
  GI50: 4.08 µM
  TGI: 22.3 µM
[28]
  GI50: 2.01 µM
  TGI: 22.4 µM
[29]
  GI50: 5.7 µM
  TGI: 27.8 µM
[30]
  GI50: 8.76 µM
  TGI: 26 µM
[31]
  GI50: 3.54 µM
  TGI: 49.9 µM
[32]
  GI50: 7.73 µM
  TGI: 21.9 µM
[33]
  GI50: 4.41 µM
  TGI: 33.4 µM
[34]
  GI50: 5.78 µM
  TGI: 23.1 µM
[35]
  GI50: 0.863 µM
  TGI: 12.6 µM
[36]
  GI50: 4.87 µM
  TGI: 39.6 µM
[37]
  GI50: 3.01 µM
  TGI: 20.9 µM
[38]
  GI50: 3.34 µM
  TGI: 14.6 µM
[39]
  GI50: 5.53 µM
  TGI: 21.3 µM
[40]
  GI50: 9.41 µM
  TGI: 23.5 µM
[41]
  GI50: 4.02 µM
  TGI: 25.9 µM
[42]
  GI50: 5.87 µM
  TGI: 20.7 µM
[43]
  GI50: 3.68 µM
  TGI: 24.1 µM
[44]
  GI50: 1.61 µM
  TGI: 4.19 µM
[45]
  GI50: 2.87 µM
  TGI: 32.4 µM
[46]
  GI50: 9.74 µM
  TGI: 26 µM
[47]
  GI50: 16.3 µM
  TGI: 58.2 µM
[48]
  GI50: 2.09 µM
  TGI: 15 µM
[49]
  GI50: 1.52 µM
  TGI: 13.4 µM
[50]
  GI50: 12.9 µM
  TGI: 31.8 µM
[51]
  GI50: 13.4 µM
  TGI: 41.9 µM
[52]
  GI50: 14.8 µM
  TGI: 28.9 µM
[53]
  GI50: 0.763 µM
  TGI: 19.9 µM
[54]
  GI50: 11 µM
  TGI: 32.5 µM
[55]
  GI50: 6 µM
  TGI: 23.8 µM
[56]
  GI50: 12.6 µM
  TGI: 56.2 µM
[57]
  GI50: 10.2 µM
  TGI: 29.8 µM
[58]
  GI50: 11.7 µM
  TGI: 26.1 µM

## O=C1NC(=NCc2cccs2)SC1Cc1ccc2ncccc2c1 (stereo not given)
[1]
  GI50: 24.7 µM
  TGI: > 25 µM
[2]
  GI50: > 25 µM
  TGI: > 25 µM
[3]
  GI50: 15 µM
  TGI: > 25 µM
[4]
  GI50: > 16.5 µM
  TGI: > 25 µM
[5]
  GI50: 9.87 µM
  TGI: > 25 µM
[6]
  GI50: > 24.1 µM
  TGI: > 25 µM
[7]
  GI50: 20.5 µM
  TGI: > 25 µM
[8]
  GI50: > 23 µM
  TGI: > 25 µM
[9]
  GI50: 15.6 µM
  TGI: > 25 µM
[10]
  GI50: > 25 µM
  TGI: > 25 µM
[11]
  GI50: 14.5 µM
  TGI: > 25 µM
[12]
  GI50: 19.5 µM
  TGI: > 25 µM
[13]
  GI50: 11.6 µM
  TGI: > 25 µM
[14]
  GI50: 10.3 µM
  TGI: > 25 µM
[15]
  GI50: 8.79 µM
  TGI: > 25 µM
[16]
  GI50: 10.2 µM
  TGI: > 25 µM
[17]
  GI50: 11.8 µM
  TGI: > 25 µM
[18]
  GI50: > 25 µM
  TGI: > 25 µM
[19]
  GI50: 24.9 µM
  TGI: > 25 µM
[20]
  GI50: > 19.3 µM
  TGI: > 25 µM
[21]
  GI50: 11.8 µM
  TGI: > 25 µM
[23]
  GI50: 11.7 µM
  TGI: > 25 µM
[24]
  GI50: > 25 µM
  TGI: > 25 µM
[25]
  GI50: 19.2 µM
  TGI: > 25 µM
[26]
  GI50: 13 µM
  TGI: > 25 µM
[27]
  GI50: > 23.6 µM
  TGI: > 25 µM
[28]
  GI50: 16.9 µM
  TGI: > 25 µM
[29]
  GI50: 18.5 µM
  TGI: > 25 µM
[30]
  GI50: 24.7 µM
  TGI: > 25 µM
[31]
  GI50: 17.3 µM
  TGI: > 25 µM
[32]
  GI50: 17.6 µM
  TGI: > 25 µM
[33]
  GI50: 15.6 µM
  TGI: > 25 µM
[34]
  GI50: 7.21 µM
  TGI: > 25 µM
[35]
  GI50: 11.7 µM
  TGI: > 25 µM
[36]
  GI50: > 25 µM
  TGI: > 25 µM
[37]
  GI50: 20.1 µM
  TGI: > 25 µM
[38]
  GI50: 15.5 µM
  TGI: > 25 µM
[39]
  GI50: > 25 µM
  TGI: > 25 µM
[40]
  GI50: 11 µM
  TGI: > 25 µM
[41]
  GI50: > 25 µM
  TGI: > 25 µM
[42]
  GI50: 10.3 µM
  TGI: > 25 µM
[43]
  GI50: 9.16 µM
  TGI: > 25 µM
[44]
  GI50: 17.4 µM
  TGI: > 25 µM
[45]
  GI50: > 23.6 µM
  TGI: > 25 µM
[46]
  GI50: > 25 µM
  TGI: > 25 µM
[47]
  GI50: > 25 µM
  TGI: > 25 µM
[48]
  GI50: 16.1 µM
  TGI: > 25 µM
[49]
  GI50: 10.7 µM
  TGI: > 25 µM
[50]
  GI50: > 25 µM
  TGI: > 25 µM
[51]
  GI50: 7.49 µM
  TGI: > 25 µM
[52]
  GI50: > 19.9 µM
  TGI: > 25 µM
[53]
  GI50: 13.1 µM
  TGI: > 25 µM
[54]
  GI50: > 25 µM
  TGI: > 25 µM
[55]
  GI50: > 25 µM
  TGI: > 25 µM
[56]
  GI50: 8.86 µM
  TGI: > 25 µM
[57]
  GI50: 11.4 µM
  TGI: > 25 µM
[58]
  GI50: > 25 µM
  TGI: > 25 µM
